In PubChem BioAssay (NCI):
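Cells were grown in 96-well plates and exposed to each compound for 48 hours at five concentrations; endpoints were interpolated linearly between bracketing concentrations, or set to the highest concentration if not reached. At the TGI there is no net growth.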

Experiments:
Assay in all cases: growth of human tumour cells (NCI), 48 h
[1] = system: MCF7 breast
[2] = system: BT-549 breast
[3] = system: HCT-15 colon
[4] = system: M14 melanoma
[5] = system: SK-MEL-28 melanoma
[6] = system: KM12 colon
[7] = system: RXF 393 renal
[8] = system: COLO 205 colon
[9] = system: MDA-MB-231 breast
[10] = system: T-47D breast
[11] = system: SF-295 CNS
[12] = system: DU-145 prostate
[13] = system: 786-0 renal
[14] = system: HL-60(TB) leukemia
[15] = system: LOX IMVI melanoma
[16] = system: A498 renal

Row | SMILES | TGI [1] [µM] | TGI [2] [µM] | TGI [3] [µM] | TGI [4] [µM] | TGI [5] [µM] | TGI [6] [µM] | TGI [7] [µM] | TGI [8] [µM] | TGI [9] [µM] | TGI [10] [µM] | TGI [11] [µM] | TGI [12] [µM] | TGI [13] [µM] | TGI [14] [µM] | TGI [15] [µM] | TGI [16] [µM]
1 | Cc1ccc(NC(=S)NNC(=O)c2cc(-c3ccccc3)nc3ccccc23)cc1 | 31.5 | 32.7 | 25.9 | 26.8 | 20.1 | 37.7 | 26.6 | 35.3 | 36.3 | 21.3 | 17.4 | 26.1 | 26.1 |  |  | 
2 | NC12Oc3cc(O)cc(O)c3C1(c1ccc(Cl)cc1)c1c(O)cc(O)cc1O2 (configuration not stated) | > 100 | > 100 | > 100 | > 100 | > 100 | > 100 | > 100 | > 100 |  | > 100 | > 100 | > 100 | > 100 | > 100 | > 100 | > 100
3 | CN1CCN(CN2C(=O)C3C4C=CC(C3C2=O)C2C(=O)N(CN3CCN(C)CC3)C(=O)C42)CC1 (configuration not stated) | 72.8 | > 100 | > 100 | > 80.6 | > 58 | > 100 | > 70.2 | > 100 | > 100 | > 100 | > 100 | > 31.6 | 97.7 | 61.6 | > 63 | 
4 | CC(/C=N\NC(=S)N1CCCCC1)=N/NC(=S)N1CCCCC1 | > 45.8 | 13.4 | 19.5 | 5.51 | 18.1 | 13.7 | 4.28 | 5.85 | 11.1 |  | 14.4 | 4.58 | 13.2 |  | > 100 | 3.59
5 | CC(C)C[C@H]1[C@@H](OCc2ccccc2)COS(=O)N1[C@H](C)c1ccccc1 (some centres not stated) |  | > 100 | > 100 | 29.5 | > 100 | 40.9 | 32.1 | 30.4 | 65.2 | > 100 | 34.3 | > 100 | 36.1 | 51.7 | 28.2 | 87.2
6 | O=C(NCCCN(CCCCN(CCCNC(=O)C(F)(F)F)CCCc1ccccc1)CCCc1ccccc1)C(F)(F)F | 3.05 | 7.34 | 2.98 | 3.25 | 3.16 | 3.65 | 3.31 | 3.11 | 3.11 | 3.84 | 3.3 | 3.99 | 2.86 | 23.9 | 3.89 | 
7 | O=C1NN=C2C=C(c3ccc(Cl)cc3)CC(c3cccc(Cl)c3)C12 (configuration not stated) | 48.5 | > 100 | 32.8 | > 100 |  | > 100 | 38.5 | 35.8 | 42.7 | > 100 | 38.4 | > 100 | 62.8 | 49.1 | 33.4 | 
8 | COc1ccc(N2C(=O)CS(=O)(=O)C2c2cccc(Oc3ccccc3)c2)cc1 (configuration not stated) | 4.72 | 54.1 | 55.2 | 22.6 | > 100 | > 100 | 19 | 11.4 | 7.6 | > 100 | > 100 | > 100 | 21.1 | > 100 | 29.5 | 
9 | CC(=O)Nc1ccc2cc(C)c(=O)[nH]c2n1 |  | > 100 | > 100 | > 100 | > 100 | > 100 | > 100 | > 100 | > 100 | > 100 | > 100 | > 100 | > 100 | > 100 |  | > 100
10 | COc1ccc(-c2c(C#N)c(O)n(NS(=O)(=O)c3ccc(C)cc3)c(=O)c2C#N)cc1 | > 100 | > 100 | > 100 | > 100 | > 100 | > 100 | > 100 | > 100 | > 100 |  | > 100 |  | > 100 | > 100 | > 100 | > 100
11 | Cc1ccc(C(=O)N/N=C(\N=Nc2ccccc2[N+](=O)[O-])c2ccc(N(C)C)cc2)cc1 | > 100 | > 100 | > 100 | > 100 | > 100 | > 100 |  | > 100 | > 100 |  | > 100 |  | > 100 | > 100 | > 100 | 
12 | CCc1nc2ccc(N=NN(C)C)cc2[nH]1 |  | > 100 | > 100 | > 100 | > 100 | > 100 | > 100 | > 100 | > 100 | > 100 |  | > 100 | > 100 |  |  | 
13 | CC(CCC#N)(CCC#N)C(=O)CC(O)(C(F)(F)F)C(F)(F)F | 21.2 |  | 10.6 | 4.81 | 27.2 | 34.2 | 5.03 | 4.9 | 14.2 | 16.2 | 41 | 26.1 | 4.72 | 3.99 | 8.14 | 40
14 | CC[C@]1(Cc2ccc(OC)c(OC)c2)[C@@H]2C[C@@H](C3OCCO3)ON2O[C@H](OC2CCCC2(c2ccccc2)c2ccccc2)[C@@H]1OC(C)=O (some centres not stated) | 41.1 | 55.9 | 30.3 | 39.6 | 47.3 | 29.5 |  | 69.3 | > 100 | 50.3 | 39.1 | 83.9 | 41.1 |  | 53.9 | 
15 | Cc1cc(C)nc(NS(=O)(=O)c2ccc(NNC(=O)c3cccc4c(=O)c5ccccc5[nH]c34)cc2)n1 | > 100 | > 100 | > 100 | > 100 | 82.8 | > 100 | > 100 | > 100 | > 100 | > 100 | > 100 | > 100 | > 100 | > 100 | > 100 | 
16 | CN(CCN(C)C(=S)NN)C(=S)NN |  | > 100 |  | > 100 | > 100 | > 100 |  | > 100 | > 100 | > 100 | > 100 | > 100 | > 100 | > 100 | > 100 | 
